Source: patent US8679803B2, “Glucose conversion to ethanol via yeast cultures and bicarbonate ions” (Church & Dwight Co., Inc., priority 2007, dated 2014)
Read-outs that look alike come from different tables or passages of the source.

Test system: Saccharomyces cerevisiae (Ethanol Red)
Conditions: yeast 2.4 g/L, glucose concentration at 10%
Method: Various concentrations of yeast were added to glucose based liquid media with and without NaHCO3 and the fermentation process monitored for glucose consumption and ethanol production.
The fermentation media consisted of 25 gm of glucose and 1 ml of urea (45%) in 250 ml of water. The pH of the system was adjusted to 4.5 with 1 M H2SO4. The temperature of incubation was about 32° C., and the tests were conducted for 72 hours. The tests compared fermentation systems with and without sodium bicarbonate (NaHCO3). NaHCO3 was added to final concentrations of 200 ppm or 500 ppm in the test vessels. […] In some vessels the pH was readjusted to 4.5. Yeasts (Saccharomyces cerevisiae (Ethanol Red) diluted 1 to 5 in water, were added to the various test vessels at 0.5, 2, 3, 4 and 5 ml. Yeasts at 3 ml in the vessel corresponds to 2.4 g/L. The fermentation media vessels were monitored for glucose utilization and ethanol production via HPLC measurement at 2, 4, 6, 24, 48 and 72 hours.

O=C([O-])O.[Na+] [SBC, sodium bicarbonate]
Ethanol (% after 48 hours) (SBC 200 ppm): 4.8%
Ethanol (% after 48 hours) (SBC 500 ppm): 4.8%
